The values that follow come from US9115149B2, “Heterocyclic compounds as inhibitors of fatty acid biosysnthesis for bacterial infections” (Vitas Pharma Research Private Limited, priority 2011, dated 2015).

≈ marks a conversion by molar mass, not a printed value. Read-outs that look alike come from different tables or passages of the source.

The subject of series [1] is Staphylococcus aureus (ATCC29213). Put plainly: MIC by microbroth dilution, methicillin sensitive S. aureus. It is filed as cell-based. To be noted: read-out: Minimum inhibitory concentration (MIC) Staphylococcus aureus (ATCC29213). On the procedure:
(§1) Shown below are the biological activities of representative compounds of the invention. The compounds were tested by the microbroth dilution method (National committee for Clinical Laboratory Standards, M07-A8, Volume 29, 2009) to determine the Minimum Inhibitory Concentration (MIC) against Methicillin sensitive and resistant Staphylococcus aureus. The MICs in the presence of 10% BSA was also tested. Further, select compounds were tested for metabolic stability using mouse liver microsomes based on published protocols (Journal of Biological Sciences, 2008, 8, 1110-1114).

Series [2] deals with Methicillin resistant Staphylococcus aureus (ATCC 33591). Put plainly: MIC by microbroth dilution, methicillin resistant S. aureus. To be noted: ATCC33591, read-out: Minimum inhibitory concentration (MIC) Methicillin resistant Staphylococcus aureus (ATCC 33591). It is filed as cell-based. Here is the method: as §1
For series [3] the test system is unchanged. In words: MIC in the presence of BSA. It is filed as cell-based. To be noted: ATCC33591, 10% BSA. Here is the method: as §1
Series [4] can be described thus: Metabolic stability in mouse liver microsomes. Type of series: in vitro ADME. Here is the method:
as §1
For orientation: Liver microsomes are vesicles of endoplasmic reticulum, rich in cytochrome P450 enzymes.

Series [5] can be described thus: Mutation prevention concentration. It is filed as cell-based. Here is the method: The mutation prevention concentration or the concentration above which mutants are unlikely to be selected, was determined based on published protocols (Antimicrobial Agents and Chemotherapy, 45, 433-438, 2001).
The subject of series [6] is Bacillus subtilis (ΔFabI, ΔFabL; Pxylose SaFabI). Put plainly: Target specificity: MIC in B. subtilis expressing S. aureus FabI under xylose inducible promoter. It is filed as cell-based. On the procedure:
To test for target specificity, the MIC was determined in a Bacillus subtilis strain in which the two FabI homologues (FabI and FabL) were deleted and replaced with S. aureus FabI (Sa FabI) under a Xylose inducible promoter. By varying the amount of xylose in the growth medium, the expression of FabI was proportionately modified. Compounds specifically targeting Sa FabI show an increased MIC when higher amounts of FabI are present in the cell (high Xylose concentrations). In contrast, when FabI levels are low, the cell becomes hypersusceptible, reducing the MIC (low Xylose concentrations). […] Shown below are data for target specificity.

A further series has as its system E. coli ATCC 25922. In words: MIC against non-S. aureus strains. Type of series: cell-based. On the procedure: (§2) A subset of compounds was tested against non-S. aureus strains to determine the Minimum Inhibitory Concentration (MIC) against non-S. aureus species (National committee for Clinical Laboratory Standards, M07-A8, Volume 29, 2009).
In another series the test system is E. feacalis ATCC 29212. In words: MIC against non-S. aureus strains. It is filed as cell-based. Here is the method: as §2
The next series deals with H. influenzae ATCC 49247. In words: MIC against non-S. aureus strains. Type of series: cell-based. On the procedure: as §2
Another series deals with M. catarrhalis ATCC 8176. Put plainly: MIC against non-S. aureus strains. It is filed as cell-based. On the procedure:
as §2

Series [7] concerns S. epidermidis ATCC 12228. Put plainly: MIC against non-S. aureus strains. Type of series: cell-based. On the procedure:
as §2

Series [8] has as its system S. haemolyticus ATCC 29970. Put plainly: MIC against non-S. aureus strains. It is filed as cell-based. On the procedure: as §2
Another series deals with S. pneumoniae ATCC 6301. In words: MIC against non-S. aureus strains. Type of series: cell-based. On the procedure:
as §2

A short description of series [9]: Pharmacokinetic profile in male Swiss albino mice. To be noted: mouse, in vivo. On the procedure:
The following compounds were dosed to male Swiss albino mice to determine the pharmacokinetic profiles.

A further series concerns MRSA ATCC33591. Put plainly: Systemic infection model in mice. To be noted: 5 doses, mortality observed for 7 days. It is filed as in vivo. Here is the method: In order to evaluate the in vivo efficacy of the scaffold, we tested representative compounds for activity in the systemic infection model in mice (Antimicrobial Agents and Chemotherapy, 47, 2507-2512, 2003). In this model, a 15× medial lethal dose of the bacteria (MRSA ATCC33591) was administered to mice intraperitoneally. 1 hour later, VT-02-00068 was administered i.v. at doses of 30, 10 and 3 mg/kg body weight. The compound was administered again 4 hours later. A total of 5 doses were administered, i.e. 2 doses on day 0, 2 on day 1 and 1 on day 2. […] The survival was 100, 100 and 65% at 30, 10 and 3 mg/kg body weight respectively.
VT-02-00044 was tested using the same protocol. The compound was dosed at 50 mg/kg body weight for 3 days, 2 doses per day.

[10] abbreviates: read-out: MIC in the presence of 0.5% Xylose (high Xylose concentration).
[11] abbreviates: intravenous single dose 5 mg/kg body weight.

On to `Cc1c(CN(C)C(=O)/C=C/c2cnc3c(c2)C2(CCC2)C(=O)N3)c2ccccc2n1C` [VT-02-00091, (E)-N-((1,2-dimethyl-1H-indol-3-yl)methyl)-N-methyl-3-(T-oxo-1′,2′-dihydrospiro[cyclobutane-1,3′-pyrrolo[2,3-b]pyridine]-5′-yl)acrylamide], for which the MIC in series [1] worked out at 15 ng/mL (≈ 0.0362 µM); in series [2], 15 ng/mL (≈ 0.0362 µM); in series [3], 120 ng/mL; in series [6] (setting [10]), 0.061 ng/mL. In addition, the “Metabolic stability (mouse liver microsomes) % of compound remaining after 30 minutes” value in series [4] was determined as 21%. Besides, in series [5], the Mutation prevention concentration was 0.06 µg/mL. This molecule registered an MIC E. coli ATCC 25922 in the series on E. coli ATCC 25922 of over 16000 ng/mL. In addition, in the series with E. feacalis ATCC 29212, the MIC E. feacalis ATCC 29212 is over 16000 ng/mL. Besides, in the series on H. influenzae ATCC 49247, the MIC H. influenzae ATCC 49247 is over 16000 ng/mL. In addition, in the series with M. catarrhalis ATCC 8176, the MIC M. catarrhalis ATCC 8176 is over 16000 ng/mL. This molecule returned an MIC S. epidermidis ATCC 12228 in [7] of 15 ng/mL (≈ 0.0362 µM). The molecule further gave an MIC S. haemolyticus ATCC 29970 in [8] of 15 ng/mL (≈ 0.0362 µM). In addition, the MIC S. pneumoniae ATCC 6301 in the series on S. pneumoniae ATCC 6301 was over 32000 ng/mL.

Turning to `Cc1c(CN(C)C(=O)/C=C/c2cnc3c(c2)C(C)(C)C(=O)N3)oc2ccccc12` [VT-02-00068, (E)-3-(3,3-dimethyl-2-oxo-2,3-dihydro-1H-pyrrolo[2,3-b]pyridin-5-yl)-N-methyl-N-((3-methylbenzofuran-2-yl)methyl)acrylamide], the MIC was 15 ng/mL (≈ 0.0385 µM) in series [1]; 15 ng/mL (≈ 0.0385 µM) in series [2]; 500 ng/mL in series [3]; under 0.06 ng/mL in series [6] (read-out: MIC in the presence of 0.005% Xylose (low Xylose concentration)); 15 ng/mL in series [6] (setting [10]). Also, the “Metabolic stability (mouse liver microsomes) % of compound remaining after 30 minutes” value in [4] is listed as 21%. In addition, in [5], the Mutation prevention concentration was 0.5 ug/ml μg/ml. Besides, the MIC E. coli ATCC 25922 against E. coli ATCC 25922 is over 16000 ng/mL. In the series with E. feacalis ATCC 29212, the MIC E. feacalis ATCC 29212 is over 16000 ng/mL. Besides, in the series with H. influenzae ATCC 49247, the MIC H. influenzae ATCC 49247 is over 16000 ng/mL. In the series on M. catarrhalis ATCC 8176, the MIC M. catarrhalis ATCC 8176 was over 16000 ng/mL. For the same molecule, the MIC S. epidermidis ATCC 12228 in series [7] was found to be 30 ng/mL (≈ 0.077 µM). In addition, the MIC S. haemolyticus ATCC 29970 in series [8] came to 250 ng/mL (≈ 0.642 µM). In the series on S. pneumoniae ATCC 6301, this molecule had an MIC S. pneumoniae ATCC 6301 of over 32000 ng/mL. Besides, in series [9] (setting [11]), the area under the curve (AUC) – broadly, concentration integrated over time – came to 10.3 µg·h/mL. The concentration in [9] (setting [11]) peaked (Cmax) at 7.85 µg/mL. Besides, the clearance – broadly, a measure of how efficiently the substance is removed, as volume per time – in [9] (setting [11]) was found to be 0.47 L/h/kg. For the same molecule, the half-life (usually the time in which the quantity being followed falls by half) in series [9] (setting [11]) was 1.82 h. In addition, the bioavailability (as a rule, the share of a dose that reaches the circulation, judged against a reference dose that is usually intravenous) in series [9] (po) is 56.1%. The Survival in the series with MRSA ATCC33591 (3 mg/kg body weight i.v.) worked out at 65%; in the series on MRSA ATCC33591 (10 mg/kg body weight i.v.), 100%; in the series with MRSA ATCC33591 (30 mg/kg body weight i.v.), 100%.
